Where two headings read alike, the source gives them in different places. Values belong to the sequence of their own block, whether it stands above or below them. Ends that are not written are not given here.
Experiments:
DRB1*0101 = molecular target: T1, DRB1*0101 (Homo sapiens, UniProt P01903+P01911, A100R/D57E/F55L/F60I/F76Y/I96L/L162R/M171V/P40L/Q125E/R42F/V115G/Y59C); assay: Class II peptide-binding assay DRB1*0101 (DR1)
T1 construct: Epstein-Barr virus (EBV) transformed homozygous cell lines were used as sources of human HLA Class II molecules; endogenous in cells; host or cells: LG2 (EBV-transformed homozygous B cell line)

DRB1*0301 = molecular target: T2, DRB1*0301 (Homo sapiens, UniProt P01903+P01911, A100K/A102G/A103R/A169T/F55Y/I96L/K41T/L162R/M171V/P40S/Q125H/Q178H/Q39Y/R42S/S66N/T106N/T262R/W38E/Y61H); assay: Class II peptide-binding assay DRB1*0301 (DR3)
T2 construct: Epstein-Barr virus (EBV) transformed homozygous cell lines were used as sources of human HLA Class II molecules; endogenous in cells; host or cells: MAT (EBV-transformed homozygous B cell line)

DRB1*0401 = molecular target: T3, DRB1*0401 (Homo sapiens, UniProt P01903+P01911, A100K/A169T/F76Y/I96L/K127E/L162R/M171V/N62H/P40V/Q125Y/R42H/S133A/S149N/S66Y/V115G/V209L/W38E); assay: Class II peptide-binding assay DRB1*0401 (DR4w4)
T3 construct: Epstein-Barr virus (EBV) transformed homozygous cell lines were used as sources of human HLA Class II molecules; endogenous in cells; host or cells: PREISS (EBV-transformed homozygous B cell line)

DRB1*0405 = molecular target: T4, DRB1*0405 (Homo sapiens, UniProt P01903+P01911, A100R/A169T/D86S/F76Y/I96L/K127E/L162R/M171V/N62H/P40V/Q125Y/R42H/S133A/S149N/S66Y/V115G/V209L/W38E); assay: Class II peptide-binding assay DRB1*0405 (DR4w15)
T4 construct: Epstein-Barr virus (EBV) transformed homozygous cell lines were used as sources of human HLA Class II molecules; endogenous in cells; host or cells: KT3 (EBV-transformed homozygous B cell line)

DRB1*0901 = DRB1*0901 (Homo sapiens, UniProt P01903+P01911, A100R/A103E/D57H/D86V/F55Y/F60I/F76Y/I96F/K127E/L162R/M171V/P40D/Q125H/Q99R/R33Q/R42F/S133A/S66N/T210M/V115G/W38K/Y107V/Y59G/Y89S); assay: Class II peptide-binding assay DRB1*0901 (DR9)
DRB1*1101 = molecular target: T5, DRB1*1101 (Homo sapiens, UniProt P01903+P01911, A100R/A169T/A87E/I96F/K41T/L162R/M171V/P40S/Q125H/Q178H/Q39Y/Q99D/R42S/S66Y/T262R/V115G/W38E); assay: Class II peptide-binding assay DRB1*1101 (DR5w11)
T5 construct: Epstein-Barr virus (EBV) transformed homozygous cell lines were used as sources of human HLA Class II molecules; endogenous in cells; host or cells: SWEIG (EBV-transformed homozygous B cell line)

DRB1*1302 = molecular target: T6, DRB1*1302 (Homo sapiens, UniProt P01903+P01911, A100E/A169T/K41T/L162R/M171V/P40S/Q125H/Q178H/Q39Y/Q99D/R42S/S66N/T262R/V115G/W38E/Y61H); assay: Class II peptide-binding assay DRB1*1302 (DR6w19)
T6 construct: Epstein-Barr virus (EBV) transformed homozygous cell lines were used as sources of human HLA Class II molecules; endogenous in cells; host or cells: HO301 / H0301 (EBV-transformed homozygous B cell line)

DRB4*0101 = molecular target: T7, DRB4*0101 (Homo sapiens, UniProt P01903+P13762, G164S); assay: Class II peptide-binding assay DRB4*0101 (DRw53)
T7 construct: expressed in transfected cells; host or cells: transfected fibroblasts L257.6

DRB5*0101 = molecular target: T8, DRB5*0101 (Homo sapiens, UniProt P01903+Q30154); assay: Class II peptide-binding assay DRB5*0101 (DR2w2a)
T8 construct: Epstein-Barr virus (EBV) transformed homozygous cell lines were used as sources of human HLA Class II molecules; endogenous in cells; host or cells: GM3107 (EBV-transformed homozygous B cell line)

DRB1*0404 = molecular target: T9, DRB1*0404 (Homo sapiens, UniProt P01903+P01911, A100R/A169T/F76Y/I96L/K127E/L162R/M171V/N62H/P40V/Q125Y/R42H/S133A/S149N/S66Y/V209L/W38E); assay: Class II peptide-binding assay DRB1*0404 (DR4w14); conditions: known HLA-DR and DQ restricted epitopes, Table 6
T9 construct: Epstein-Barr virus (EBV) transformed homozygous cell lines were used as sources of human HLA Class II molecules; endogenous in cells; host or cells: BIN40 (EBV-transformed homozygous B cell line)

DRB1*0701 = molecular target: T10, DRB1*0701 (Homo sapiens, UniProt P01903+P01911, A100R/A102G/A103Q/D57E/D86V/E43K/F76Y/K127E/L162R/M171V/P40G/Q125H/Q99D/R33Q/R42Y/R54Q/S133A/S66F/T210M/V115G/Y107V/Y59L/Y89S); assay: Class II peptide-binding assay DRB1*0701 (DR7); conditions: known HLA-DR and DQ restricted epitopes, Table 6
T10 construct: Epstein-Barr virus (EBV) transformed homozygous cell lines were used as sources of human HLA Class II molecules; endogenous in cells; host or cells: PITOUT (EBV-transformed homozygous B cell line)

DRB1*0802 = molecular target: T11, DRB1*0802 (Homo sapiens, UniProt P01903+P01911, A100R/A103L/A169T/F76Y/H45Y/I96F/K41T/L162R/M171V/P40S/Q125H/Q178H/Q39Y/Q99D/R218S/R42G/S66Y/V115G/W38E); assay: Class II peptide-binding assay DRB1*0802 (DR8w2)
T11 construct: Epstein-Barr virus (EBV) transformed homozygous cell lines were used as sources of human HLA Class II molecules; endogenous in cells; host or cells: OLL (EBV-transformed homozygous B cell line)

DRB3*0101 = molecular target: T12, DRB3*0101 (Homo sapiens, UniProt P01903+P79483); assay: Class II peptide-binding assay DRB3*0101 (DR52a)
T12 construct: expressed in transfected cells; host or cells: transfected fibroblasts TR81.19

[1] = known HLA-DR and DQ restricted epitopes, Table 6
[2] = inhibition of radiolabeled probe binding, — read as no appreciable binding

T2 sequence (P01903 26-254, other chains not shown): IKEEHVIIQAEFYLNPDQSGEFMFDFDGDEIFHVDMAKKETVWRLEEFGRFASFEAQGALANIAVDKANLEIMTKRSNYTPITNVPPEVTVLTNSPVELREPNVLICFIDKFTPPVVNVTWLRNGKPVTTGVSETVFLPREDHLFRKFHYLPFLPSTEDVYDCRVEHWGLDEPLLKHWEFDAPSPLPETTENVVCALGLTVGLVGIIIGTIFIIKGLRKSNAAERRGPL
T5 sequence (P01903 26-254, other chains not shown): as above
T6 sequence (P01903 26-254, other chains not shown): as above

Sequence: FNNFTVSFWLRVPKVSASHLEQY
IC50 (DRB1*0101): 417 nM
IC50 (DRB1*0301; [1]): > 20000 nM
IC50 (DRB1*0401; [1]): 93 nM
IC50 (DRB1*0404): 4540 nM
IC50 (DRB1*0701): 57 nM
IC50 (DRB1*0802): 581 nM
IC50 (DRB1*1101; [1]): 8.3 nM
IC50 (DRB1*1302; [1]): 6370 nM
IC50 (DRB3*0101): 2820 nM
IC50 (DRB4*0101): 1680 nM
IC50 (DRB5*0101): 2860 nM

Sequence: LLYCFRKDMDKVETF
IC50 (DRB3*0101; [2]): 6940 nM

Sequence: VLEEKLEKEDFTRGK
IC50 (DRB3*0101; IFNb 15-mer peptides, Table 5D): 1390 nM
IC50 (DRB4*0101; IFNb 15-mer peptides, Table 5D): 19100 nM
IC50 (DRB5*0101; IFNb 15-mer peptides, Table 5D): 4610 nM

Sequence: YKTIAYDEEARR
IC50 (DRB3*0101): > 20000 nM
IC50 (DRB4*0101): > 20000 nM
IC50 (DRB5*0101): > 20000 nM

The next lines start with the values.

IC50 (DRB1*0101): 18 nM
IC50 (DRB1*0301): 1280 nM
IC50 (DRB1*0401): 46 nM
IC50 (DRB1*0405): 39 nM
IC50 (DRB1*0901): 161 nM
IC50 (DRB1*1101): 26 nM
IC50 (DRB1*1302): 7.5 nM
IC50 (DRB4*0101): 1130 nM
IC50 (DRB5*0101): 12 nM
Sequence: DTGRKLFRVYSNFLR

IC50 (DRB4*0101; [2]): 3710 nM
Sequence: LLKDLEEGIQTLMGR

IC50 (DRB3*0101; IFNb 15-mer peptides, Table 5D): 6780 nM
Sequence: LWQLNGRLEYCLKDR

IC50 (DRB4*0101; IFNb 15-mer peptides, Table 5D): 1390 nM
IC50 (DRB5*0101; IFNb 15-mer peptides, Table 5D): 6760 nM
Sequence: NHLKTVLEEKLEKED [NHLKTVLEEKLEKED]

IC50 (DRB3*0101; [2]): 22600 nM
Sequence: TSLCFSESIPTPSNR

Reference: patent US20070184519A1, “Peptides, polypeptides, and proteins of reduced immunogenicity and methods for their production” (priority 2003, published 2007)
